The source made the active and inactive calls. The calls are words filed in the database; no cut-off is given here.
How the values were obtained:
Histone deacetylase 4 = Histone deacetylase 4 (Homo sapiens, UniProt P56524); test: Inhibition of human recombinant TEV-8His-tagged HDAC4 (648 to 1057 residues) expressed in Escherichia coli (DE3) Rosetta cells using Boc-Lys-(Tfa)-AMC as substrate preincubated for 5 mins followed by substrate addition and measured after 90 mins by fluorescence based microplate reader analysis
Sequence of Histone deacetylase 4 (P56524 whole entry, the tested form may be a part): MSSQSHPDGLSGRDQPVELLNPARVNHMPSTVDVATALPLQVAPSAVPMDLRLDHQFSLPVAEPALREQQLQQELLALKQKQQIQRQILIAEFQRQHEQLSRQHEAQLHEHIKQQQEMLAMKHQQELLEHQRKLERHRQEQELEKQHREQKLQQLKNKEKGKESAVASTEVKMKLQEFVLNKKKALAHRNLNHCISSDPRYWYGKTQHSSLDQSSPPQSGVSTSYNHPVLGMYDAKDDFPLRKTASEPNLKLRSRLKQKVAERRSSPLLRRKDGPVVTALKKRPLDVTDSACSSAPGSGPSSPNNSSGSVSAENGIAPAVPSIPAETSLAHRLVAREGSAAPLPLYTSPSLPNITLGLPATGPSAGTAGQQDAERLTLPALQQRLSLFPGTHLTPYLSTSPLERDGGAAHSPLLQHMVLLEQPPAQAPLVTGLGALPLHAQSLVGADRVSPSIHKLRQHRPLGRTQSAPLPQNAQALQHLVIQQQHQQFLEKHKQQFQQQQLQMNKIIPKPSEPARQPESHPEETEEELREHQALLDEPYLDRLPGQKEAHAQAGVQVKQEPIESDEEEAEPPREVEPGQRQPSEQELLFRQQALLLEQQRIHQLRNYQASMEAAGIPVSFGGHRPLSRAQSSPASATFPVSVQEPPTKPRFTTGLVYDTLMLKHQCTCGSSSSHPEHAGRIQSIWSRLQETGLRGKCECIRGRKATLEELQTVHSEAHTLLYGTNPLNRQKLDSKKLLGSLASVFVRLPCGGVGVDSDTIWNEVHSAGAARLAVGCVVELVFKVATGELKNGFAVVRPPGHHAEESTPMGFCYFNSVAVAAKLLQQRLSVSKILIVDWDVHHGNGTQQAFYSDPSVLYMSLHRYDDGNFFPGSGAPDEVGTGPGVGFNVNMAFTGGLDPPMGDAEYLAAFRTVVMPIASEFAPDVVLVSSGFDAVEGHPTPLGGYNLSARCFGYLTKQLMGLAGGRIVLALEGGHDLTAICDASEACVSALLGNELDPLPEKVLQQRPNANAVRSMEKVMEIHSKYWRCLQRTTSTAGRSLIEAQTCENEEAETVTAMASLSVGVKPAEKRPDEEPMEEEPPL

Histone deacetylase 2 = Histone deacetylase 2 (Homo sapiens, UniProt Q92769); test: Inhibition of human recombinant HDAC2 using Boc-Lys(Ac)-AMC as substrate preincubated for 5 mins followed by substrate addition and measured after 90 mins by fluorescence based microplate reader analysis
Sequence of Histone deacetylase 2 (Q92769 whole entry): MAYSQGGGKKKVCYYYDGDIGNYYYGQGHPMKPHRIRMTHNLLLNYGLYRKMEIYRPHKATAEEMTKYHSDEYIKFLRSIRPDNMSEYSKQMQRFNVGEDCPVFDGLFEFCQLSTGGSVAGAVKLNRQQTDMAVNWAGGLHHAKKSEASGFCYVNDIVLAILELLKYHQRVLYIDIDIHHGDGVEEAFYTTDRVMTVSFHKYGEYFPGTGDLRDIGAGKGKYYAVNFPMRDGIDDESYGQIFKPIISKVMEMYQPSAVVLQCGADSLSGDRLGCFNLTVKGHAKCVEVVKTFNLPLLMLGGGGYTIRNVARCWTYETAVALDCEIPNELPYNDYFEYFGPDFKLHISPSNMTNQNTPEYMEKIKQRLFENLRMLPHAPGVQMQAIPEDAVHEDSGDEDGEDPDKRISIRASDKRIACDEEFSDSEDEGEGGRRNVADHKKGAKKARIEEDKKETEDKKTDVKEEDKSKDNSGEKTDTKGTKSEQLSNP

[1] = target: T1, Protein deacetylase HDAC6 (Homo sapiens, UniProt Q9UBN7); test: Inhibition of human recombinant HDAC6 using Boc-Lys(Ac)-AMC as substrate preincubated for 5 mins followed by substrate addition and measured after 90 mins by fluorescence based microplate reader analysis
T1 sequence (Q9UBN7 whole entry): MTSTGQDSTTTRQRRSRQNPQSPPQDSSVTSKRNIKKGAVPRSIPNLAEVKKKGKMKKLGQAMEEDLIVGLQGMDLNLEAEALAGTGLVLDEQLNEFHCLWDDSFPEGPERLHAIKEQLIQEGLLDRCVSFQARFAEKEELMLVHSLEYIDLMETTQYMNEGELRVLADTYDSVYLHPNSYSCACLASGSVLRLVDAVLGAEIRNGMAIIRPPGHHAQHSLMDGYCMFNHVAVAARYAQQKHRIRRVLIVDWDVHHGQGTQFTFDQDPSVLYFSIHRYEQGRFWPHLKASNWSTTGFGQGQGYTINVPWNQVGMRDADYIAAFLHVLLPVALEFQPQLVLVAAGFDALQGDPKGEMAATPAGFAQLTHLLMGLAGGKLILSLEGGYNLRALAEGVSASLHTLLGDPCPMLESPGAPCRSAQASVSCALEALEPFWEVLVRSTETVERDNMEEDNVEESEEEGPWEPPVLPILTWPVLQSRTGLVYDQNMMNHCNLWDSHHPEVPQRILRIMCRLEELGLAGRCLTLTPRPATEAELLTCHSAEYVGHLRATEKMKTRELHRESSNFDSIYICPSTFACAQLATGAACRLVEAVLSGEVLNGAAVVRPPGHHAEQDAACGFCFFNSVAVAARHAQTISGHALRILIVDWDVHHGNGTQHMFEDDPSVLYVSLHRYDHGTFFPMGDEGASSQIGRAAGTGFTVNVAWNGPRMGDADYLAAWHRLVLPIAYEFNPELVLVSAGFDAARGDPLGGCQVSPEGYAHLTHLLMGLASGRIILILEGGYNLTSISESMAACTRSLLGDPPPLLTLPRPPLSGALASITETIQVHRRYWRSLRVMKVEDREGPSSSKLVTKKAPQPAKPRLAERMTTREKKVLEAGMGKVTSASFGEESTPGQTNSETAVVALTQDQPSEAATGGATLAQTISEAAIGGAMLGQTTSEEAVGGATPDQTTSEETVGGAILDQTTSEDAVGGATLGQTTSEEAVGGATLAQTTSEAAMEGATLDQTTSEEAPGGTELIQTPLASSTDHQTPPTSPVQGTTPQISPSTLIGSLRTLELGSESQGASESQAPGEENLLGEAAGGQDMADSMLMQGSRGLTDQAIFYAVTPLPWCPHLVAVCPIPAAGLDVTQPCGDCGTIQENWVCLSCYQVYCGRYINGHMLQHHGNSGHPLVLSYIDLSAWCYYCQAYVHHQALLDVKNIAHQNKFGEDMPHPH

Histone deacetylase 8 = target: T2, Histone deacetylase 8 (Homo sapiens, UniProt Q9BY41); test: Inhibition of human recombinant HDAC8 using Boc-Lys-(Tfa)-AMC as substrate preincubated for 5 mins followed by substrate addition and measured after 90 mins by fluorescence based microplate reader analysis
T2 sequence (Q9BY41 whole entry): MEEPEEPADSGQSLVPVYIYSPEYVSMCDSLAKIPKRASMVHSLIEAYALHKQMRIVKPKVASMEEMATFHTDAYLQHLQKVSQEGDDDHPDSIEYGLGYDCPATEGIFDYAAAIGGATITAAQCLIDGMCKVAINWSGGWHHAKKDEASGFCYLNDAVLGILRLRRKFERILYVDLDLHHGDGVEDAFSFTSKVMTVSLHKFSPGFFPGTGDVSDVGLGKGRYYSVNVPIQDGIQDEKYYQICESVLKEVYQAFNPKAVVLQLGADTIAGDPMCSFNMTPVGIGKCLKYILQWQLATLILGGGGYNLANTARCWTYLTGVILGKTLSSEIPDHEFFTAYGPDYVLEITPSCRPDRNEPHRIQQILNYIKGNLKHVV

THP-1 [2] = test: Inhibition of Class IIa/8 HDAC in human THP-1 cells at 100 uM preincubated for 18 hrs followed by substrate addition and measured after 3 hrs by fluorescence based microplate reader assay relative to control; format: cell-based; conditions: time 21.0 hrs, values are per cent of control
THP-1 [3] = test: Inhibition of Class I/IIb HDAC in human THP-1 cells at 100 uM preincubated for 18 hrs followed by substrate addition and measured after 3 hrs by fluorescence based microplate reader assay relative to control; format: cell-based; conditions: time 21.0 hrs
[4] = Inhibition of Class I/IIb HDAC in human THP-1 cells preincubated for 18 hrs followed by substrate addition and measured after 3 hrs by fluorescence based microplate reader assay; format: cell-based
[5] = Inhibition of Class IIa/8 HDAC in human THP-1 cells preincubated for 18 hrs followed by substrate addition and measured after 3 hrs by fluorescence based microplate reader assay; format: cell-based
THP-1 [6] = test: Antiproliferative activity against human THP-1 cells assessed as reduction in cell viability at 100 uM incubated for 72 hrs by MTT assay relative to control; format: functional
THP-1 [7] = test: cells; conditions: Homo sapiens, THP-1, 72 h
Description: Antiproliferative activity against human THP-1 cells assessed as inhibition of cell growth incubated for 72 hrs by MTT assay

Histone deacetylase 1 = Histone deacetylase 1 (Homo sapiens, UniProt Q13547); test: Inhibition of HDAC1 (unknown origin)
Sequence of Histone deacetylase 1 (Q13547 whole entry): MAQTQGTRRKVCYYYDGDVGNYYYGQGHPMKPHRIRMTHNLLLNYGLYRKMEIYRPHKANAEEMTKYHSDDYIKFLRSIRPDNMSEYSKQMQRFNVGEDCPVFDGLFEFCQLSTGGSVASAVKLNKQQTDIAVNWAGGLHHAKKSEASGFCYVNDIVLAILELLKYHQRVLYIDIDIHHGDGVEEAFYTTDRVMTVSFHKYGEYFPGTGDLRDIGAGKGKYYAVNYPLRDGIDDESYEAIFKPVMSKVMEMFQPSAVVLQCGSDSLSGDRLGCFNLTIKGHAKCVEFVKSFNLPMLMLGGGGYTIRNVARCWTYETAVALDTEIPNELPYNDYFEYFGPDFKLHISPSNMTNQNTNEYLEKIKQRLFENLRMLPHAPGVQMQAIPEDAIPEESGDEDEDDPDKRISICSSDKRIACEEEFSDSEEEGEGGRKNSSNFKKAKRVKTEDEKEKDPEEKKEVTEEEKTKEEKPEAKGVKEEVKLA

Histone deacetylase 3 = Histone deacetylase 3 (Homo sapiens, UniProt O15379); test: Inhibition of HDAC3 (unknown origin)
Sequence of Histone deacetylase 3 (O15379 whole entry): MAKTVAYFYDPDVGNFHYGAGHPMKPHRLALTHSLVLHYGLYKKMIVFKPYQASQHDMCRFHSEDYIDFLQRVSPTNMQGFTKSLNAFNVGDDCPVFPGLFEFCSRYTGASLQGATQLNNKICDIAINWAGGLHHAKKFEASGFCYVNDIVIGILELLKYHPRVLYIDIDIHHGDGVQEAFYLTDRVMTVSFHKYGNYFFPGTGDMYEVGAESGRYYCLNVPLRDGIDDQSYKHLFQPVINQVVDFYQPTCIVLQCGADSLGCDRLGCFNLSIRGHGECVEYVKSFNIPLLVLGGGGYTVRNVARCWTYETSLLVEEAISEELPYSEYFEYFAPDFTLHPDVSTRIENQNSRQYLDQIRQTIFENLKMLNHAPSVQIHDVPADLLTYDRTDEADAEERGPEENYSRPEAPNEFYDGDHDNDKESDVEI

Histone deacetylase 5 = Histone deacetylase 5 (Homo sapiens, UniProt Q9UQL6); test: Inhibition of HDAC5 (unknown origin)
Sequence of Histone deacetylase 5 (Q9UQL6 whole entry): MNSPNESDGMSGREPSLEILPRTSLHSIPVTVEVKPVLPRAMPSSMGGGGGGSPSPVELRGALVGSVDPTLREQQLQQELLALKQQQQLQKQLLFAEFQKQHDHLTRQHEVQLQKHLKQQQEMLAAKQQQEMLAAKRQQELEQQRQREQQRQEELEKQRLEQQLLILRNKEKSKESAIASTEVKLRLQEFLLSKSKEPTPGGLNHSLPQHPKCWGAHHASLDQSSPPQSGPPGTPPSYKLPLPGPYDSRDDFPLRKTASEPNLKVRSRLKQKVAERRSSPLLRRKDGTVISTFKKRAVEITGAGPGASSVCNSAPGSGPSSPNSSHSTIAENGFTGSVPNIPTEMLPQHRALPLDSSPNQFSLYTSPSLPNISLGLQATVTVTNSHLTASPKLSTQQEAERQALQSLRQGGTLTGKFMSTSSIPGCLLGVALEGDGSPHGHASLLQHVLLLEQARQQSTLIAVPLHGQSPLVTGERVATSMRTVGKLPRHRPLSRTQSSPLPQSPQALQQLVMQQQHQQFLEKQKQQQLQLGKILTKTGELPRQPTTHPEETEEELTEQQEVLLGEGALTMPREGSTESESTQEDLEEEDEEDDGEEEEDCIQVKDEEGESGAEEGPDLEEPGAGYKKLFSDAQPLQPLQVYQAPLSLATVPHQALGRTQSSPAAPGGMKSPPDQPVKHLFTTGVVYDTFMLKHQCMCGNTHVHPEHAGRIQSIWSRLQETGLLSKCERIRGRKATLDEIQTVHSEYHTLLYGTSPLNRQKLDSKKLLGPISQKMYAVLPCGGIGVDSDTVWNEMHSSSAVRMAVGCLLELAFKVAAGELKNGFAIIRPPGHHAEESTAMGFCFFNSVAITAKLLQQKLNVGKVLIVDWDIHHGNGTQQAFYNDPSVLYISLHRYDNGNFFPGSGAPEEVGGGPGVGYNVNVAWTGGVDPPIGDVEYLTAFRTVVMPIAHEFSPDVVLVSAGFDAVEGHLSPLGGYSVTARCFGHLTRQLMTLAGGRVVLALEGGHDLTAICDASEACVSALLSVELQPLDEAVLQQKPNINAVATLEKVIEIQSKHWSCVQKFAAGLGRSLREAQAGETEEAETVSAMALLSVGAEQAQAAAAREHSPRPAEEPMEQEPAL

Histone deacetylase 11 = target: T3, Histone deacetylase 11 (Homo sapiens, UniProt Q96DB2); test: Inhibition of HDAC11 (unknown origin)
T3 sequence (Q96DB2 whole entry): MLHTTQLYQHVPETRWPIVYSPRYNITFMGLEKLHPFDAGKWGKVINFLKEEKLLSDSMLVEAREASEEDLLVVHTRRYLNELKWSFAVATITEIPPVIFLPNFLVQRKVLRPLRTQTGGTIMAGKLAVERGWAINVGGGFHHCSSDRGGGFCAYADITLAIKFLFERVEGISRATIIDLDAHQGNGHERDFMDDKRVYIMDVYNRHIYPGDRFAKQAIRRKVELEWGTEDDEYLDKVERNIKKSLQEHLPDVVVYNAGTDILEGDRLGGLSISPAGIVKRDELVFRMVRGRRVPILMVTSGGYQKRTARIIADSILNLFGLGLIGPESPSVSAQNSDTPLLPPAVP

CAL-27 [8] = test: Antiproliferative activity against human CAL-27 cells overexpressing HDAC4 assessed as inhibition of cell growth incubated for 72 hrs by MTT assay; format: functional, cell-based; conditions: CAL-27, 72 h
CAL-27 [9] = test: Antiproliferative activity against human CAL-27 cells without HDAC4 expression assessed as inhibition of cell growth incubated for 72 hrs by MTT assay; format: functional, cell-based; conditions: CAL-27, 72 h
THP-1 [10] = test: Induction of apoptosis in human THP-1 cells assessed as subG1 population at 5.7 uM incubated for 48 hrs by Propidium iodide staining based flow cytometric analysis; format: functional, cell-based
THP-1 [11] = test: Synergistic induction of apoptosis in human THP-1 cells assessed as increase in subG1 population at 5.7 uM incubated for 48 hrs in the presence of 7.9 nM bortezomib by Propidium iodide staining based flow cytometric analysis; format: functional, cell-based
THP-1 [12] = test: Induction of apoptosis in human THP-1 cells assessed as caspase3/7 activation at 5.7 uM incubated for 48 hrs by Hoechst 33342 staining based assay; format: functional, cell-based
THP-1 [13] = test: Synergistic induction of apoptosis in human THP-1 cells assessed as increase in caspase3/7 activation at 5.7 uM incubated for 48 hrs in the presence of 7.9 nM bortezomib by Hoechst 33342 staining based assay; format: functional, cell-based
THP-1 [14] = test: Induction of apoptosis in human THP-1 cells assessed as subG1 population at 5 uM incubated for 48 hrs by Propidium iodide staining based flow cytometric analysis; format: functional, cell-based
THP-1 [15] = test: Synergistic induction of apoptosis in human THP-1 cells assessed as increase in subG1 population at 5 uM incubated for 48 hrs in the presence of 7.9 nM bortezomib by Propidium iodide staining based flow cytometric analysis; format: functional, cell-based
THP-1 [16] = test: Induction of apoptosis in human THP-1 cells assessed as caspase3/7 activation at 5 uM incubated for 48 hrs by Hoechst 33342 staining based assay; format: functional, cell-based
THP-1 [17] = test: Synergistic induction of apoptosis in human THP-1 cells assessed as increase in caspase3/7 activation at 5 uM incubated for 48 hrs in the presence of 7.9 nM bortezomib by Hoechst 33342 staining based assay; format: functional, cell-based
THP-1 [18] = test: Synergistic effect on p21 protein expression in human THP-1 cells assessed as increase in p21 protein expression level at 5 uM incubated for 24 hrs in the presence of 7.9 nM bortezomib by Western blot analysis; format: functional, cell-based
THP-1 [19] = test: Effect on p21 protein expression in human THP-1 cells assessed as increase in p21 protein expression level at 5 uM incubated for 24 hrs by Western blot analysis; format: functional, cell-based

Compound	IC50 (Histone deacetylase 4) [µM]	IC50 (Histone deacetylase 2) [µM]	IC50 [1] [µM]	IC50 (Histone deacetylase 8) [µM]	IC50 [4] [µM]	IC50 [5] [µM]	IC50 (THP-1 [7]) [µM]	residual activity (THP-1 [2]) [%]	inhibition (THP-1 [3]) [%]	Activity (THP-1 [6]) [%]	other results
CN(C(=O)c1ccc(-c2noc(C(F)(F)F)n2)cc1)c1ccccc1	0.75	> 100	19.6	71.8	> 100	6.39	> 100	118	31	33	
CN(Cc1ccccc1)C(=O)c1ccc(-c2noc(C(F)(F)F)n2)cc1	0.025	8.13	2.03	> 100	29.1	0.54	> 100	117	78	34	IC50 (Histone deacetylase 1): 14.6 µM; IC50 (Histone deacetylase 3): 6.86 µM; IC50 (Histone deacetylase 5): 0.154 µM; IC50 (Histone deacetylase 11): > 100 µM
O=C(NO)C(c1ccc(-c2ncc(C(F)(F)F)cn2)cc1)c1ccccc1F (stereo not given)											IC50 (CAL-27 [8]): 12.8 µM; IC50 (CAL-27 [9]): 9.69 µM
O=C(CCCCCCC(=O)Nc1ccccc1)NO [VORINOSTAT]										97	
CN1CCN(C(=O)c2ccc(-c3noc(C(F)(F)F)n3)cc2)CC1	1.18	80	55.4	16.1	> 100	5.51	> 100	103	23	39	
CCN(CC)CCN(C)C(=O)c1ccc(-c2noc(C(F)(F)F)n2)cc1	0.198	34.8	16.9	10.8	14	1.27	> 100	98	65	31	
CN(C)c1ccc(CNC(=O)c2ccc(-c3noc(C(F)(F)F)n3)cc2)cc1	0.94	> 100	> 100	> 100	> 100	5.51	~100	103	25	49	
O=C(NCC1(c2nc(-c3ccccc3)cs2)CCOCC1)c1cccc(-c2noc(C(F)(F)F)n2)c1										100	Activity (THP-1 [14]): inactive; Activity (THP-1 [15]): Active; Activity (THP-1 [16]): inactive; Activity (THP-1 [17]): Active; Activity (THP-1 [18]): Active; Activity (THP-1 [19]): Active
O=C(NCCc1c[nH]c2ccccc12)c1ccc(-c2noc(C(F)(F)F)n2)cc1	0.69	> 100	> 100	> 100		14.5	~100	97	64	49	
O=C(NOCCN1CCOCC1)c1ccc(-c2noc(C(F)(F)F)n2)cc1	0.141	9.77	18.1	7.13	> 100	0.429	~100	100	41	47	IC50 (Histone deacetylase 1): 2.21 µM; IC50 (Histone deacetylase 3): 2.36 µM; IC50 (Histone deacetylase 5): 0.151 µM; IC50 (Histone deacetylase 11): > 100 µM

Second part, led by results:

IC50 (Histone deacetylase 4) [µM]	IC50 (Histone deacetylase 2) [µM]	IC50 [1] [µM]	IC50 (Histone deacetylase 8) [µM]	IC50 [4] [µM]	IC50 [5] [µM]	IC50 (THP-1 [7]) [µM]	Compound	residual activity (THP-1 [2]) [%]	inhibition (THP-1 [3]) [%]	Activity (THP-1 [6]) [%]	other results
5.54	> 100	> 100	> 100	> 100	> 100	47.3	O=C(Nc1cnc2ccccc2c1)c1ccc(-c2noc(C(F)(F)F)n2)cc1	18	0	63	
0.139	25.4	5.61	6.72	13.7	1.17	~100	CCN(CC)CCCCNC(=O)c1ccc(-c2noc(C(F)(F)F)n2)cc1	102	73	47	
				64.2	0.59	~100	O=C(NOCCN1CCCCC1)c1ccc(-c2noc(C(F)(F)F)n2)cc1	101	70	45	IC50 (Histone deacetylase 1): 20.7 µM; IC50 (Histone deacetylase 3): 15 µM; IC50 (Histone deacetylase 5): 0.268 µM; IC50 (Histone deacetylase 11): > 100 µM; Activity (THP-1 [10]): inactive; Activity (THP-1 [11]): Active; Activity (THP-1 [12]): inactive; Activity (THP-1 [13]): Active; IC50 (CAL-27 [8]): 69.8 µM; IC50 (CAL-27 [9]): 77.7 µM
						0.001	Cc1[nH]c2ccccc2c1CCNCc1ccc(/C=C/C(=O)NO)cc1 [PANOBINOSTAT]			96	
